This note sets out measurements from EP0073390A1, “Combination of active substances from kitasamycine and quinoxaline-di-N oxides” (BAYER AG, priority 1981, dated 1983).

For assay [1], the system named is Ferkel. The assay can be described thus: Feeding trial with piglets, Beispiel 1 (daily weight gain and feed conversion). It counts as in vivo. The text has this: a) Tier-Charakteristik und Futter
• a1) Ferkel • a2) Anzahl 30 • a3) Zucht große weiße Landrasse Kreuzungszucht • a4) Geschlecht männlich • a5) Alter etwa 8 bis 14 Wochen • a6) Gewicht 17,5 bis 45 kg • a7) Zustand gut • a8) Futter [formula]
Ingredientien: • Weizen, Gerste, Hirse, Kleie, Fleischmehl, Sojabohnenmehl, Baumwollsamenmehl, Sonnenblumensamenmehl, Lysin, Salz, Kalkstein, 2RO, MnO, Kupfer- und Eisensulfat, Kaliumjodid, Vitamine A, D, E, K, B/2, Niazin, Pantothensäure.
Die Behandlung der Tiere wurde in 5 Behandlungsgruppen durchgeführt. Das Anfangsgewicht für jede Gruppe war gleich.
Die Ferkel wurden […] gewogen. Es wurde die tägliche Gewichtszunahme und Futterverwertung bestimmt. Wöchentliches Wiegen und individuelle Futteraufnahme wurden notiert.

Assay [2] has as its system Ferkel. Nature of the assay: Feeding trial with piglets, Beispiel 2 (weight gain, feed conversion, back fat thickness by ultrasound). It is filed as in vivo. The text has this:
a) Tiercharakteristik und Futter
Die Ferkel wurden zu Versuchbeginn und in wöchentlichen oder vierzehntägigen Abständen bis zum Versuchsende gewogen.
Futtermenge und Mortalität wurden täglich notiert.
Die Rückenfettstärke wurde per Ultraschall am Versuchsende gemessen und auf 75 kg Lebendgewicht korrigiert.

Molecules are shown by their SMILES.

`Cc1c(C(=O)NCCO)[n+]([O-])c2ccccc2[n+]1[O-]` [d1)]: the “Durchschnittliche tägliche Gewichtszunahme” value in the assay with Ferkel [1] (Beispiel 1, Ferkel, male, about 8 to 14 weeks, 17,5 bis 45 kg, Konzentration (ppm): d1) 50, d2) 50, d3) 25:25, d4) 12,5:12,5, Kontrolle 537) was 593 g/Tag. In addition, the “Durchschnittliches Futterverwertungsverhältnis” value in the assay on Ferkel [1] (Beispiel 1; Ferkel; groups e1)-e4) correspond to d1)-d4); concentration column printed empty; e5) (presumably control) 2,72) is listed as 2,52 g/g. The results for the Futterverwertung in the assay on Ferkel [2] (40 kg bis 75 kg), in the assay on Ferkel [2] (Beginn bis 40 kg) and with Ferkel [2] (Beginn bis Ende) were 3,10 g/g, 2,30 g/g and 2,74 g/g, respectively. For the same molecule, the Gewichtszunahme in the assay on Ferkel [2] (40 kg bis Ende) was 641 g/Tag; in the assay with Ferkel [2] (Beginn bis 40 kg) it was 499 g/Tag; with Ferkel [2] (Beginn bis Ende), 573 g/Tag.
